Results published in patent US8785457B2 (Cellzome Limited, priority 2009, dated 2014).

Experiments:
[1] = system: Delayed type hypersensitivity (DTH) reaction; experiment: Delayed type hypersensitivity in mice (KLH, ear thickness); type: in vivo
Source text: The Delayed type hypersensitivity (DTH) reaction is observed when subjects are immunized with an antigen, and then subsequently challenged with the same antigen to induce a localized inflammation. The model can be inhibited by drugs affecting a range of immune and inflammatory mechanisms. In this instance, a DTH reaction is induced in mice using Keyhole Limpet Hemocyanin (KLH), measuring inflammation in the ear pinna. Keyhole Limpet Hemocyanin (KLH; Sigma, catalogue number H7017) preparation: […] Aliquots were stored at −20° C. For the first immunization (day 0) the KLH stock solution (10 mg/ml) was diluted to 0.5 mg/ml with PBS (1:20). Then a 1:1 mixture with Complete Freund's Adjuvant (CFA; Sigma catalogue number 5881) was prepared (final KLH concentration 0.25 mg/ml). For the second immunization (day 5) the KLH stock solution was diluted to 1 mg/ml with 0.9% NaCl (1:10). Mice (Balb/c ˜9 weeks of age) were immunized with 2×100 μl of a 1:1 emulsion of KLH in CFA (25 μg KLH/site) injected subcutaneously into the right and left flank. On day 5 post-injection, mice received a challenge of 10 μg KLH (in 10 μl physiological saline), injected intradermally into the right ear. On day 5, 6 and 7 the ear thickness was measured with a caliper. Measurements were performed one hour after compound administration in the morning. Compound CZC1 corresponding to example 34 of the present invention was dosed once daily orally (p.o.) from day 0 to day 7 (Table 10). Vehicle: 0.5% carboxymethylcellulose (CMC). Doses: 3, 10 and 30 mg/kg. Cyclosporine A (Calbiochem) was dosed twice daily orally (p.o., 8 am and 4 pm from day 0 to day 7). Vehicle: 5% DMSO, 0.5 CMC. Dose: 25 mg/kg. Control treatment: 5% DMSO, 0.5% CMC administered p.o. [table]

[2] = system: Salmonella typhimurium strain TA1535; experiment: Ames plate assay, TA1535
Description: (§1) Certain compounds of the invention were tested for their potential to induce gene mutations in bacterial strains of Salmonella typhimurium (strains TA1535, TA1537, TA98, TA100) and Escherichia coli (strain WP2uvrA(pKM101)) in a bacterial mutation assay in the absence and presence of metabolite activation (rat S9-mix). Compounds are tested at the following dose levels: 50, 150, 500, or 1500 μg/plate.
(§2) Vehicle control treatment is the vehicle used to prepare the test compound formulation diluted to the same extent as the test compound solution. Positive controls using known mutagens are included for each strain with and without rat S9 mix. Four plates are used for the vehicle control and two replicate plates per dose per strain for the treated groups and for each positive control. At the end of incubation the number of revertant colonies per plate are recorded and mean values calculated for each vehicle control, positive control and concentration of test compound used. Results are also expressed as a ratio of the mean values to the mean concurrent vehicle control value (i.e. fold increase).

[3] = system: Salmonella typhimurium strain TA1537; experiment: Ames plate assay, TA1537
Description: as §1, §2

[4] = system: Escherichia coli strain WP2uvrA(pKM101); experiment: Ames plate assay, WP2uvrA(pKM101)
Description: as §1, §2

[5] = system: Salmonella typhimurium strain TA100; experiment: Ames plate assay, TA100
Description: as §1, §2

[6] = system: Salmonella typhimurium strain TA98; experiment: Ames plate assay, TA98
Description: as §1, §2

CCOC(=O)N1Cc2nc(-c3ccc(NC(=O)NC4CC4)cc3)nc(N3CCOC[C@@H]3C)c2C1 [Example 34, (S)-ethyl 2-(4-(3-cyclopropylureido)phenyl)-4-(3-methylmorpholino)-5H-pyrrolo[3,4-d]pyrimidine-6(7H)-carboxylate]
−: Ames plate assay TA1535 +S9 ([2]; TA1535, +S9, 50 μg/Plate) | Ames plate assay TA1535 +S9 ([2]; TA1535, +S9, 150 μg/Plate) | Ames plate assay TA1535 +S9 ([2]; TA1535, +S9, 500 μg/Plate) | Ames plate assay TA1535 +S9 ([2]; TA1535, +S9, 1500 μg/Plate) | Ames plate assay TA1535 −S9 ([2]; TA1535, −S9, 50 μg/Plate) | Ames plate assay TA1535 −S9 ([2]; TA1535, −S9, 150 μg/Plate) | Ames plate assay TA1535 −S9 ([2]; TA1535, −S9, 500 μg/Plate) | Ames plate assay TA1535 −S9 ([2]; TA1535, −S9, 1500 μg/Plate) | Ames plate assay TA1537 +S9 ([3]; TA1537, +S9, 50 μg/Plate) | Ames plate assay TA1537 +S9 ([3]; TA1537, +S9, 150 μg/Plate) | Ames plate assay TA1537 +S9 ([3]; TA1537, +S9, 500 μg/Plate) | Ames plate assay TA1537 +S9 ([3]; TA1537, +S9, 1500 μg/Plate) | Ames plate assay TA1537 −S9 ([3]; TA1537, −S9, 50 μg/Plate) | Ames plate assay TA1537 −S9 ([3]; TA1537, −S9, 150 μg/Plate) | Ames plate assay TA1537 −S9 ([3]; TA1537, −S9, 500 μg/Plate) | Ames plate assay TA1537 −S9 ([3]; TA1537, −S9, 1500 μg/Plate) | Ames plate assay WP2uvrA (pKM101) +S9 ([4]; +S9, 50 μg/Plate) | Ames plate assay WP2uvrA (pKM101) +S9 ([4]; +S9, 150 μg/Plate) | Ames plate assay WP2uvrA (pKM101) +S9 ([4]; +S9, 500 μg/Plate) | Ames plate assay WP2uvrA (pKM101) +S9 ([4]; +S9, 1500 μg/Plate) | Ames plate assay WP2uvrA (pKM101) −S9 ([4]; −S9, 50 μg/Plate) | Ames plate assay WP2uvrA (pKM101) −S9 ([4]; −S9, 150 μg/Plate) | Ames plate assay WP2uvrA (pKM101) −S9 ([4]; −S9, 500 μg/Plate) | Ames plate assay WP2uvrA (pKM101) −S9 ([4]; −S9, 1500 μg/Plate) | Ames plate assay TA100 +S9 ([5]; TA100, +S9, 50 μg/Plate) | Ames plate assay TA100 +S9 ([5]; TA100, +S9, 150 μg/Plate) | Ames plate assay TA100 +S9 ([5]; TA100, +S9, 500 μg/Plate) | Ames plate assay TA100 +S9 ([5]; TA100, +S9, 1500 μg/Plate) | Ames plate assay TA100 −S9 ([5]; TA100, −S9, 50 μg/Plate) | Ames plate assay TA100 −S9 ([5]; TA100, −S9, 150 μg/Plate) | Ames plate assay TA100 −S9 ([5]; TA100, −S9, 500 μg/Plate) | Ames plate assay TA100 −S9 ([5]; TA100, −S9, 1500 μg/Plate) | Ames plate assay TA98 +S9 ([6]; TA98, +S9, 50 μg/Plate) | Ames plate assay TA98 +S9 ([6]; TA98, +S9, 150 μg/Plate) | Ames plate assay TA98 +S9 ([6]; TA98, +S9, 500 μg/Plate) | Ames plate assay TA98 +S9 ([6]; TA98, +S9, 1500 μg/Plate) | Ames plate assay TA98 −S9 ([6]; TA98, −S9, 50 μg/Plate) | Ames plate assay TA98 −S9 ([6]; TA98, −S9, 150 μg/Plate) | Ames plate assay TA98 −S9 ([6]; TA98, −S9, 500 μg/Plate) | Ames plate assay TA98 −S9 ([6]; TA98, −S9, 1500 μg/Plate)
significantly reduced: increase in ear thickness ([1]; 3 mg/kg p.o. once daily day 0 to day 7, 24 hours post-challenge) | increase in ear thickness ([1]; 10 mg/kg p.o. once daily day 0 to day 7, 24 hours post-challenge) | increase in ear thickness ([1]; 30 mg/kg p.o. once daily day 0 to day 7, 24 hours post-challenge)
